Read-outs that look alike come from different tables or passages of the source.
Assays:
γ-crystallin [1] = assay: DLS, aggregation of γ-crystallin (stated for γD and γS together); type: biochemical; settings: dilute solution, 22° and 37° C.
Method: Scattering intensity was measured at angles between 30° and 90° at 5° intervals, corresponding to a scattering wave vector (q) range between 8.41×10^6 and 2.30×10^7 m^−1. The scattering wave vector is defined as q=4πn sin (θ/2)/λ, where θ is the scattering angle, and λ=514.5, the wavelength of the argon laser in vacuum, and n is 1.33, the refractive index of water. The temperature of the sample was held at constant temperature of 4 to 37±0.1° C. by a circulating water bath.
The correlation function was analyzed using CONTIN analysis to calculate lag times for the correlation functions at measured angles. The peaks represent the diffusive mode of the proteins. The delay times (τ) were converted to Γ and graphed versus q^2. The slope of the fitted line is the diffusion coefficient (D). The lines are fitted such that the intercept is zero because a non-zero value of q=0 is unphysical. The Γ versus q^2 plots were linear with r^2 values of 0.95 or greater.
All solutions were filtered with 0.22 μm hydrophobic PVDF membranes (Fisher Scientific) into 10 mm diameter borosilicate glass tubes and sealed. Solutions were allowed to equilibrate for thirty minutes prior to measuring light scattering.
γ-crystallins were subjected to a variety of experimental conditions, including a range of pHs (5, 6, 7, 8, 9, 10, 11), concentrations of KCl (100 mM, 150 mM, 300 mM, 500 mM, 1000 mM) and temperature (4.5° C., 22° C., 37° C.). The pH and salt concentration were adjusted via overnight dialysis at 4° C. and their final concentration adjusted to 1.0 g/L.
It had been hypothesized that disulfide bonds might mediate the observed γ-crystallin aggregates. The DLS of the γ-crystallin proteins was also measured in 5 mM DTT, and in the presence of 1.0 g/L α-crystallin. […] Thus, this hypothesis was incorrect.
Further, the synthesized α-crystallin proteins were mixed with γ-crystallin proteins to determine if the chaperoning ability of α-crystallin disrupts the γ-crystallin aggregates. The α-A and α-B crystallins were each individually mixed with γD- or γS-crystallin in a molar ratio of 3:1, respectively, mimicking the ratio found in the human eye lens. All solutions were allowed to equilibrate for an hour at 4° C.

γ-crystallin [2] = assay: Circular dichroism of modified γ-crystallin (secondary structure); type: biochemical; settings: 0.5 mg/mL, 22° C., versus native protein
Method: Crystallin samples were dialyzed overnight into 10 mM Na2HPO4/NaH2PO4 buffer pH 6.8 and measured at a concentration of 0.5 mg/mL. CD spectra were measured on a Jasco J715 spectropolarimeter at 22° C. using a quartz cell of 1 mm path length.

human cadaver lenses = test system: human cadaver lenses; set-up: key to LOCS III grade, Cortical / LOCS III grade, NO / LOCS III grade, PS / LOCS III grade, NC: LOCS III cataract grade on a decimal scale (higher = more severe)
Method: Within about 24 hours of death, the eyeball is harvested, sliced and the vitreous is removed. The lens is excised and placed in an incubation medium called Optisol®. Optisol® is a corneal storage medium containing chondroitin sulfate, dextran 40, optisol base powder, sodium bicarbonate, gentamycin, amino acids, sodium pyruvate, L-glutamine, 2-mercaptoethanol and purified water. OD is the right eye and OS is the left eye.
Lens opacities are classified according to the LOCS III system. LOCS III measurements are taken with a slit lamp microscope. The LOCS III contains an expanded set of standards selected from the Longitudinal Study of Cataract slide library at the Center for Clinical Cataract Research, Boston, Mass. It includes six slit lamp images for grading nuclear color (NC) and nuclear opalescence (NO), five retroillumination images for grading cortical cataract (C), and five retroillumination images for grading posterior subcapsular (P) cataract. Cataract severity is graded on a decimal scale, with the standards have regularly spaced intervals on the scale.
In all cases, the control is Optisol® medium. The remaining data points are for isolated human cadaver lenses treated with CAPEG4 solutions with Optisol®.

[3] = 10 mg/mL CAPEG4 (OD), 0 HR, Table 7
[4] = 10 mg/mL CAPEG4, 24 HR, Table 7
[5] = 10 mg/mL CAPEG4, 72 HR, Table 7
[6] = 50 mg/mL CAPEG4 (OD), 0 HR, Table 8
[7] = 50 mg/mL CAPEG4, 24 HR, Table 8
[8] = 50 mg/mL CAPEG4, 72 HR, Table 8
[9] = 100 mg/mL CAPEG4 (OD), 0 HR, Table 9
[10] = 100 mg/mL CAPEG4 (OD), 0 HR, Table 10 (repeat, different eyes)
[11] = 100 mg/mL CAPEG4, 24 HR, Table 9
[12] = 100 mg/mL CAPEG4, 24 HR, Table 10 (repeat, different eyes)
[13] = 100 mg/mL CAPEG4, 72 HR, Table 9
[14] = 100 mg/mL CAPEG4, 72 HR, Table 10 (repeat, different eyes)
[15] = 200 mg/mL CAPEG4 (OD), 0 HR, Table 11
[16] = 200 mg/mL CAPEG4 (OD), 0 HR, Table 12 (second pair of lenses)
[17] = 200 mg/mL CAPEG4, 24 HR, Table 11
[18] = 200 mg/mL CAPEG4, 24 HR, Table 12 (second pair of lenses)
[19] = 200 mg/mL CAPEG4, 72 HR, Table 11
[20] = 200 mg/mL CAPEG4, 72 HR, Table 12 (second pair of lenses)

With `NCCOCCOCCOCCOCCC(=O)O` [CAPEG4] the “aggregation of γ-crystallin modified with the agent (DLS)” value (γ-crystallin [1]) was “prevented aggregation of proteins”, the “secondary structure of modified γ-crystallin (CD spectra)” value (γ-crystallin [2]) was “showed a similar trend to modifications made with PEG4 and PEG24” and the “observation on lens capsule and lens volume” value (human cadaver lenses) was “wrinkling of the lens capsule was observed and subjectively exhibited some loss of lens volume”. The “change of LOCS III grades versus control” value (human cadaver lenses; 10 mg/mL CAPEG4) was “no significant change in the experimental versus control samples”, the “LOCS III grade, Cortical” value (human cadaver lenses; [3]) was 1.0 and the “LOCS III grade, NC” value (human cadaver lenses; [3]) was 5.0. The “LOCS III grade, NO” value (human cadaver lenses; [3]) was 5.0, the “LOCS III grade, PS” value (human cadaver lenses; [3]) was 0.9 and the “LOCS III grade, Cortical” value (human cadaver lenses; [4]) was 1.0. The “LOCS III grade, NC” value (human cadaver lenses; [4]) was 5.0, the “LOCS III grade, NO” value (human cadaver lenses; [4]) was 5.0 and the “LOCS III grade, PS” value (human cadaver lenses; [4]) was 0.9. For the same molecule, the “LOCS III grade, Cortical” value (human cadaver lenses; [5]) was 0.9, the “LOCS III grade, NC” value (human cadaver lenses; [5]) was 5.0 and the “LOCS III grade, NO” value (human cadaver lenses; [5]) was 5.0. The “LOCS III grade, PS” value (human cadaver lenses; [5]) was 0.9, the “LOCS III grade, Cortical” value (human cadaver lenses; [6]) was 1.0 and the “LOCS III grade, NC” value (human cadaver lenses; [6]) was 1.7. For the same molecule, the “LOCS III grade, NO” value (human cadaver lenses; [6]) was 2.0, the “LOCS III grade, PS” value (human cadaver lenses; [6]) was 1.1 and the “LOCS III grade, Cortical” value (human cadaver lenses; [7]) was 1.0. The “LOCS III grade, NC” value (human cadaver lenses; [7]) was 1.7, the “LOCS III grade, NO” value (human cadaver lenses; [7]) was 2.0 and the “LOCS III grade, PS” value (human cadaver lenses; [7]) was 0.9. For the same molecule, the “LOCS III grade, Cortical” value (human cadaver lenses; [8]) was 1.0, the “LOCS III grade, NC” value (human cadaver lenses; [8]) was 1.9 and the “LOCS III grade, NO” value (human cadaver lenses; [8]) was 2.0. The “LOCS III grade, PS” value (human cadaver lenses; [8]) was 0.9, the “difference of cortical cataracts and NO versus controls” value (human cadaver lenses; 50 mg/mL CAPEG4, up to 72 hours) was “no significant differences between the controls and 50 mg/mL incubation” and the “LOCS III grade, Cortical” value (human cadaver lenses; [9]) was 3.0. The “LOCS III grade, NC” value (human cadaver lenses; [9]) was 1.3, the “LOCS III grade, NO” value (human cadaver lenses; [9]) was 1.8 and the “LOCS III grade, PS” value (human cadaver lenses; [9]) was 0.9. For the same molecule, the “LOCS III grade, Cortical” value (human cadaver lenses; [10]) was 3.0, the “LOCS III grade, NC” value (human cadaver lenses; [10]) was 3.0 and the “LOCS III grade, NO” value (human cadaver lenses; [10]) was 3.0. The “LOCS III grade, PS” value (human cadaver lenses; [10]) was 1.8, the “LOCS III grade, Cortical” value (human cadaver lenses; [11]) was 2.9 and the “LOCS III grade, NC” value (human cadaver lenses; [11]) was 1.1. For the same molecule, the “LOCS III grade, NO” value (human cadaver lenses; [11]) was 1.2, the “LOCS III grade, PS” value (human cadaver lenses; [11]) was 0.9 and the “LOCS III grade, Cortical” value (human cadaver lenses; [12]) was 2.6. The “LOCS III grade, NC” value (human cadaver lenses; [12]) was 3.0, the “LOCS III grade, NO” value (human cadaver lenses; [12]) was 3.0 and the “LOCS III grade, PS” value (human cadaver lenses; [12]) was 1.5. For the same molecule, the “LOCS III grade, Cortical” value (human cadaver lenses; [13]) was 2.7, the “LOCS III grade, NC” value (human cadaver lenses; [13]) was 1.1 and the “LOCS III grade, NO” value (human cadaver lenses; [13]) was 1.2. The “LOCS III grade, PS” value (human cadaver lenses; [13]) was 0.9, the “LOCS III grade, Cortical” value (human cadaver lenses; [14]) was 2.0 and the “LOCS III grade, NC” value (human cadaver lenses; [14]) was 3.2. For the same molecule, the “LOCS III grade, NO” value (human cadaver lenses; [14]) was 3.0, the “LOCS III grade, PS” value (human cadaver lenses; [14]) was 1.0 and the “LOCS III grade, Cortical” value (human cadaver lenses; [15]) was 2.5. For the same molecule, the “LOCS III grade, NC” value (human cadaver lenses; [15]) was 2.4, the “LOCS III grade, NO” value (human cadaver lenses; [15]) was 2.4 and the “LOCS III grade, PS” value (human cadaver lenses; [15]) was 0. For the same molecule, the “LOCS III grade, Cortical” value (human cadaver lenses; [16]) was 1.3, the “LOCS III grade, NC” value (human cadaver lenses; [16]) was 2.8 and the “LOCS III grade, NO” value (human cadaver lenses; [16]) was 3.2. The “LOCS III grade, PS” value (human cadaver lenses; [16]) was 0.9, the “LOCS III grade, Cortical” value (human cadaver lenses; [17]) was 2.2 and the “LOCS III grade, NC” value (human cadaver lenses; [17]) was 2.4. The “LOCS III grade, NO” value (human cadaver lenses; [17]) was 2.4, the “LOCS III grade, PS” value (human cadaver lenses; [17]) was 0 and the “LOCS III grade, Cortical” value (human cadaver lenses; [18]) was 1.0. For the same molecule, the “LOCS III grade, NC” value (human cadaver lenses; [18]) was 2.8, the “LOCS III grade, NO” value (human cadaver lenses; [18]) was 3.2 and the “LOCS III grade, PS” value (human cadaver lenses; [18]) was 0.9. For the same molecule, the “LOCS III grade, Cortical” value (human cadaver lenses; [19]) was 2.0, the “LOCS III grade, NC” value (human cadaver lenses; [19]) was 2.4 and the “LOCS III grade, NO” value (human cadaver lenses; [19]) was 2.4. The “LOCS III grade, PS” value (human cadaver lenses; [19]) was 0, the “LOCS III grade, Cortical” value (human cadaver lenses; [20]) was 0.9 and the “LOCS III grade, NC” value (human cadaver lenses; [20]) was 2.8. The “LOCS III grade, NO” value (human cadaver lenses; [20]) was 3.2, the “LOCS III grade, PS” value (human cadaver lenses; [20]) was 0.9 and the “cause of reduction in cataracts (agent versus pH of medium)” value (human cadaver lenses; compared with Optisol lowered to the same pH with citric acid) was “due to the CAPEG4 and not a pH effect of the medium”.

From patent US10413529B2, “Methods of inhibiting cataracts and presbyopia” (UNIVERSITY OF MASSACHUSETTS, priority 2013, dated 2019)
